# Test results as given in US11819532B2, “Peptide macrocycles against Acinetobacter baumannii” (Hoffmann-La Roche Inc., priority 2018, dated 2023).
# Like-named read-outs stand apart in the source and are kept apart here.
# Assays:
# [1] = positive control and comparator in all assay runs; cited from earlier work
# [2] = tested on: primary hepatocytes; test: Hepatocyte uptake assay scaled to in vivo clearance (cynomolgus monkey); type: in vitro ADME; details: scaled from monkey hepatocyte uptake, well-stirred liver model
# Excerpt: (§1) The compounds of the present invention are cleared through hepatic uptake, which can be determined experimentally in vitro using methods described in the art (e.g., K. Menochet, K. E. Kenworthy, J. B. Houston, A. Galetin, Journal of Pharmacology and Experimental Therapeutics 2012, 34, 2). In cases where the scaled in vitro hepatocyte uptake clearance data correspond to the clearance observed in animals, a meaningful prediction of the human clearance can be made on the basis of in vitro human hepatocyte uptake data.
# (§2) The hepatocyte uptake assay was performed manually in 24-well plates in analogy to a protocol described in the literature (K. Menochet, K. E. Kenworthy, J. B. Houston, A. Galetin, Journal of Pharmacology and Experimental Therapeutics 2012, 34, 2). […] Next, the cell monolayer was lysed using acetonitrile/water 3:1, and the intracellular concentration was measured using LC-MS/MS.
# (§3) Total (CLuptake) and passive (CLpassive) uptake clearance values were measured from initial uptake rates in the absence and presence of inhibitors. Uptake rates were calculated over 10 minutes at 37° C. from the slope of the linear regression of the cell concentrations versus time plot. Total and passive uptake clearance values were calculated by dividing the slope by the initial substrate concentration and were normalized for protein content. […]
# [3] = tested on: primary hepatocytes; test: Hepatocyte uptake assay scaled to in vivo clearance (human); type: in vitro ADME; details: scaled from human hepatocyte uptake, well-stirred liver model
# Excerpt: as §1, §2, §3
# [4] = Single dose pharmacokinetic study in male rats; details: rat, plasma, intravenous bolus dose of 6 mg/kg, read-out: rat clearance, observed in vivo
# Experimental: Three male rats were administered with compound formulation (3 mg/mL in 0.9% saline) as an intravenous bolus dose of 6 mg/kg.
# (§4) Blood was sampled at 0.08, 0.25, 0.5, 1, 2, 4, 7 and 24 hours after administration and the blood collecting tubes were centrifuged for 5 min at 5200 g at room temperature to isolate the plasma supernatant.
# Concentrations of compound in plasma were analyzed using a LC-MS method with a calibration range of 1-2500 ng/mL. The clearance values are calculated using methods described in the art and are summarised in Example 23.
# [5] = Plasma precipitation screening assay; design: species or system rat
# Experimental: An aliquot (10 μL) of compound solubilized in physiological buffer or the formulation used for its parenteral administration in vivo, and of various dilutions thereof in phosphate-buffered saline (PBS), is mixed 1:1 with rat plasma. After 10 minutes incubation at room temperature the UV-absorption of the mixtures is measured and compared to absorption of blank plasma or plasma with vehicle solution. A significant (often concentration dependent) increase of absorption is indicative of precipitation.
# Whole blood is obtained from WISTAR rats (Hanbrl:Wist SPF) under terminal anaesthesia after intraperitoneal injection of a pentobarbital solution (from animals euthanized for collection of tissue for other experimental purposes). Blood is collected in 1.2 mL of Heparin S-Monovette tubes (Sarstedt) for the preparation of heparin plasma.
# The tubes are then centrifuged for 5 min at 5200 g at room temperature to isolate the plasma supernatant. The plasma is used in the assay within 48 h of collection (storage at 4° C.).
# Test compounds are received as powder or formulated. When obtained as powder, they are solubilized in 0.9% aq. sodium chloride solution in order to get the highest indicated concentration to be tested. The solubility is visually checked and the solutions are filtered using 0.45 PVDF hydrophilic filters (Durapore®, Darmstadt, Germany), to remove possible solid impurities. pH of this initial solution might be measured in the filtered stock solutions, before proceeding to prepare a compound dilution series in PBS (1:1-dilution steps).
# The assay is conducted in 384-well plates. 10 μL of rat plasma is added to 10 μL of the various compound solutions. The assay is performed in duplicate. 10 μL of vehicle (0.9% aq. sodium chloride solution, PBS) added to the plasma is used as a negative control. The absorption is measured at 362 nm.
# Raw data obtained are absorbance data. The difference between absorbance of the sample and mean absorbance of vehicle is calculated. The minimal effect concentration (MEC) is defined as the lowest concentration giving an absorbance difference, OD362≥0.05.
# [6] = tested on: A. baumannii ATCC 17978; test: 50% growth inhibitory concentration (IC50) determination, antimicrobial susceptibility testing; type: cell-based; details: Acinetobacter baumannii
# Experimental: The in vitro antimicrobial activity of the compounds was alternatively determined according to the following procedure:
# The assay used a 10-points Iso-Sensitest broth medium to measure quantitatively the in vitro activity of the compounds against A. baumannii ATCC 17978.
# Stock compounds in DMSO were serially twofold diluted (e.g. range from 50 to 0.097 μM or from 10 to 0.020 μM final concentration) in 384 wells microtiter plates and inoculated with 49 μl the bacterial suspension in Iso-Sensitest medium to have a final cell concentration of ˜5×10^(5)CFU/ml in a final volume/well of 50 μl/well. Microtiter plates were incubated at 35±2° C.
# Bacterial cell growth was determined with the measurement of optical density at X=600 nm each 20 minutes over a time course of 16h.
# Growth inhibition was calculated during the logarithmic growth of the bacterial cells with determination of the concentration inhibiting 50% (IC50) and 90% (IC90) of the growth.
# Table 1 provides the 50% growth inhibitory concentrations (IC50) in micromoles per liter of the compounds of present invention obtained against the A. baumannii strain ATCC17978.
# [7] = Single dose pharmacokinetic study in male cynomolgus monkeys; details: cynomolgus monkey, plasma, intravenous bolus dose of 1 mg/kg, read-out: cynomolgus monkey clearance, observed in vivo
# Experimental: Three male monkeys were administered with compound formulation (2 mg/mL in 0.9% saline) as an intravenous bolus dose of 1 mg/kg.
# as §4
# Concentrations of compound in plasma were analyzed using a LC-MS method with a calibration range of 0.5-2500 ng/mL and are summarised in Example 23.
# [8] = tested on: primary hepatocytes; test: Hepatocyte uptake assay scaled to in vivo clearance (rat); type: in vitro ADME; details: scaled from rat hepatocyte uptake, well-stirred liver model
# Excerpt: as §1, §2, §3
# [9] = minimal effect concentration, lowest concentration giving absorbance difference OD362≥0.05, rat plasma 1:1, 10 minutes room temperature
# [10] = 50% growth inhibition, A. baumannii strain ATCC17978, Iso-Sensitest medium, read-out: IC50 ATCC17978
# [11] = Wistar (Hanbrl:Wist SPF), rat, 10 min
# [12] = ATCC17978, read-out: IC50 ATCC17978
structure (smiles),measurement,setting,value
"CN1C(=O)[C@H](CCCCN)NC(=O)[C@H](CCCN)NCc2cccnc2Sc2c(Cl)ccc(Cl)c2CNC(=O)[C@@H]1Cc1c[nH]c2ccccc12 [CAS-RN 2097284-11-0, (11S,14S,17S)-14-(4-Aminobutyl)-11-(3-aminopropyl)-22,25-dichloro-17-(1H-indol-3-ylmethyl)-16-methyl-2-thia-4,10,13,16,19-pentazatricyclo[19.4.0.03,8]pentacosa-1(25),3(8),4,6,21,23-hexaene-12,15,18-trione]",precipitation in plasma,[1],known to induce precipitation in plasma
"CN1C(=O)[C@H](CCCCN)NC(=O)[C@H](CCCN)NCc2cccnc2Sc2cccc(-c3ccc(C(=O)O)cc3)c2CNC(=O)[C@@H]1Cc1c[nH]c2ccccc12 [Example 1.00, 4-[(11S,14S,17S)-14-(4-Aminobutyl)-1-(3-aminopropyl)-17-(1H-indol-3-ylmethyl)-16-methyl-12,15,18-trioxo-2-thia-4,10,13,16,19-pentazatricyclo[19.4.0.03,8]pentacosa-1(25), 3(8),4,6,21,23-hexaen-22-yl]benzoic Acid]","cynomolgus monkey clearance, in vitro scaled",[2],3.8 mL/min/kg
same,"human clearance, in vitro scaled (predicted)",[3],0.46 mL/min/kg
same,clearance,[4],14.3 mL/min/kg
same,Plasma precipitation MEC,[5]; [9],1110 µmol/L
same,IC50,[6]; [10],98 nM
same,clearance,[7],4.8 mL/min/kg
same,"rat clearance, in vitro scaled",[8],14.5 mL/min/kg
"CN1C(=O)[C@H](CCCCN)NC(=O)[C@H](CCCN)NCc2cccnc2Sc2cncc(-c3ccc(C(=O)O)cc3)c2CNC(=O)[C@@H]1Cc1c[nH]c2ccccc12 [Example 18.00, 4-[(11S,14S,17S)-14-(4-Aminobutyl)-1-(3-aminopropyl)-17-(1H-indol-3-ylmethyl)-16-methyl-12,15,18-trioxo-2-thia-4,10,13,16,19,24-hexazatricyclo[19.4.0.03,8]pentacosa-1(25), 3(8), 4,6,21,23-hexaen-22-yl]benzoic Acid]",Plasma precipitation MEC,[5]; [11],>1760 µmol/L
same,IC50,[6]; [10],75 nM
"CN1C(=O)[C@H](CCCCN)NC(=O)[C@H](CCCN)NCc2cccnc2Sc2c(Cl)ccc(Cl)c2CNC(=O)[C@@H]1Cc1c[nH]c2ccccc12 [Example 38 of WO2017/072062, reference compound]",Plasma precipitation MEC,[5]; [9],52 µmol/L
same,IC50,[6]; [12],42 nM
"CN1C(=O)[C@H](CCCCN)NC(=O)[C@H](CCCN)NCc2cccnc2Sc2c(Cl)ccc(-c3ccc(C(=O)O)cc3)c2CNC(=O)[C@@H]1Cc1c[nH]c2ccccc12 [Example 239 of WO2017/072062, reference compound]",Plasma precipitation MEC,[5]; [9],470 µmol/L
same,IC50,[6]; [12],20 nM
"CN1C(=O)[C@H](CCCCN)NC(=O)[C@H](CCCN)NCc2cccnc2Sc2c(Cl)ccc(-c3ccc(OCC(=O)O)cc3)c2CNC(=O)[C@@H]1Cc1c[nH]c2ccccc12 [Example 241 of WO2017/072062, reference compound]",Plasma precipitation MEC,[5]; [11],95 µmol/L
same,IC50,[6]; [10],50 nM
"CN1C(=O)[C@H](CCCCN)NC(=O)[C@H](CCCN)NCc2cccnc2Sc2c(Cl)ccc(-c3ccc(C(=O)O)cc3)c2CNC(=O)[C@@H]1Cc1c[nH]c2ccccc12 [drawing 99, reference compound]","cynomolgus monkey clearance, in vitro scaled",[2],28.3 mL/min/kg
same,"human clearance, in vitro scaled (predicted)",[3],3.91 mL/min/kg
same,clearance,[4],23.5 mL/min/kg
same,clearance,[7],14.5 mL/min/kg
same,"rat clearance, in vitro scaled",[8],28.7 mL/min/kg
